Data as given in ChEMBL document CHEMBL1201862, “PubChem BioAssay data set” (2004).
Calls of active or inactive are those of the source.

How the values were obtained:
[1] = molecular target: T1, Ubiquitin-conjugating enzyme E2 N (Homo sapiens, UniProt P61088); format: functional
T1 sequence (P61088 whole entry): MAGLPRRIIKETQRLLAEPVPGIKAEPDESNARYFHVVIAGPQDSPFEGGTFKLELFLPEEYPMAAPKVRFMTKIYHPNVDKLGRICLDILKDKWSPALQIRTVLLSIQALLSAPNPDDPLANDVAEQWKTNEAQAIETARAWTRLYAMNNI

[2] = molecular target: T1, Ubiquitin-conjugating enzyme E2 N; format: functional; remark: listed apart in the source
[3] = molecular target: T2, Bcl-2-related protein A1 (Mus musculus, UniProt Q07440); format: functional;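 further: confirmatory dose–response counterscreen on Bfl-1, used to check hits from a UBC13 polyubiquitin inhibitor campaign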
T2 sequence (Q07440 whole entry): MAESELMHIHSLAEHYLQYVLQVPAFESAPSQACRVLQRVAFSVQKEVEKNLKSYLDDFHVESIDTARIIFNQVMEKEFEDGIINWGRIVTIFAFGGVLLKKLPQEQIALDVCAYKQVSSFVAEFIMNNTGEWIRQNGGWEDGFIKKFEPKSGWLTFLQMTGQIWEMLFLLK

[4] = molecular target: G-protein coupled receptor 55 (Homo sapiens, UniProt Q9Y2T6); assay: blockers of GPR55 signalling, imaged – imaging, image-based, counter-screen for GPR35 antagonist project, SAR follow-up (AID 2397); format: functional
[5] = molecular target: T3, Protein RecA (Mycobacterium tuberculosis, UniProt P9WHJ3); assay: Fluorescence Cell-Free Homogeneous Dose Retest to Identify Inhibitors of RecA-Intein Splicing Activity. [Related pubchem assays (depositor defined):AID2097, AID2223, AID489010, AID492950]; format: functional
T3 sequence (P9WHJ3 whole entry): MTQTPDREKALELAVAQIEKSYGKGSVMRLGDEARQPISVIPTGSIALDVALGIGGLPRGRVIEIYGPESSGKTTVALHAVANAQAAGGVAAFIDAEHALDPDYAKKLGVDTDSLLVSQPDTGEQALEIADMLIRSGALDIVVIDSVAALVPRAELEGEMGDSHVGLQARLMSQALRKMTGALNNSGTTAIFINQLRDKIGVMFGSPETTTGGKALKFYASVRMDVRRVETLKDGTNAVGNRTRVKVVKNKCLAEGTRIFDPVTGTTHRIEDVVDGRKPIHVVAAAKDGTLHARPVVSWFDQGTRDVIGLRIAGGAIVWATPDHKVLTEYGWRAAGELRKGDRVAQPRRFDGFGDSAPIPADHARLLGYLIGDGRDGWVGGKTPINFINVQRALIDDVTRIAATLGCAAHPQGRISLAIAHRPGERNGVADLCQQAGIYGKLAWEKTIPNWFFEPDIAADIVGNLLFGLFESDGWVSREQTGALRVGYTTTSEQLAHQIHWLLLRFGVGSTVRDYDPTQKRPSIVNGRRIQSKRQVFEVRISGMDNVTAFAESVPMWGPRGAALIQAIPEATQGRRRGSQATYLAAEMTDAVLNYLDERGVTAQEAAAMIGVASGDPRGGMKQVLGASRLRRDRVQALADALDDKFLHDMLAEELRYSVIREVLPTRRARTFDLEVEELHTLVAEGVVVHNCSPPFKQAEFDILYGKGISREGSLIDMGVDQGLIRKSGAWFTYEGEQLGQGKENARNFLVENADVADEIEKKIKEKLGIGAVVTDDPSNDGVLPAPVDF

[6] = molecular target: T4, Replicative DNA helicase DnaB (Mycobacterium tuberculosis, UniProt P9WMR3); assay: DnaB intein splicing inhibitors, dose response, biochemical, cell-free fluorescence (AID 449749); format: functional
T4 sequence (P9WMR3 whole entry): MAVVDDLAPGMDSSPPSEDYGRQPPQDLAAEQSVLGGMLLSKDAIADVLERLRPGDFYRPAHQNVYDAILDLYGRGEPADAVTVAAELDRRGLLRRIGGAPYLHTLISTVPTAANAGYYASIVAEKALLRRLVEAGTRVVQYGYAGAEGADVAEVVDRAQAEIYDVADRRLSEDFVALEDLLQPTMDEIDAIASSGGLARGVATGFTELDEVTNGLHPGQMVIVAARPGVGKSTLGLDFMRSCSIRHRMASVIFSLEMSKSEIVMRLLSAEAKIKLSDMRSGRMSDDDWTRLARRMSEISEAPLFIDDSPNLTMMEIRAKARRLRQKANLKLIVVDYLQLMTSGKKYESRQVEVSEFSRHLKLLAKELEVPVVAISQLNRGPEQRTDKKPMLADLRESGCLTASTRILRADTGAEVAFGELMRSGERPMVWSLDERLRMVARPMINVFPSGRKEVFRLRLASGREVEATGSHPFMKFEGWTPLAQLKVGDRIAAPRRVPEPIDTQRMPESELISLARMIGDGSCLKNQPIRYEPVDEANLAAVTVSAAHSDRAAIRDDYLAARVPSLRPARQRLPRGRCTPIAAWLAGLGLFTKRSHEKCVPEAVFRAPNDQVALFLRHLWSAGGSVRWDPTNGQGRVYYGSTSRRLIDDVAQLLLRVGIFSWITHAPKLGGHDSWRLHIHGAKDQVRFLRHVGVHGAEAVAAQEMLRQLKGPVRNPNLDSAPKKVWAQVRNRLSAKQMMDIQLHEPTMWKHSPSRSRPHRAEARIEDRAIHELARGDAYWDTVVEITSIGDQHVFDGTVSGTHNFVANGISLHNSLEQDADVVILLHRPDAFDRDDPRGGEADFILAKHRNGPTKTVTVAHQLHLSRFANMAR

[7] = molecular target: T5, G-protein coupled receptor 35 (Homo sapiens, UniProt Q9HC97); assay: inhibition of zaprinast-stimulated GPR35 beta-arrestin translocation – imaging, U2OS, beta-arrestin-GFP, zaprinast agonist, primary screen (AID 2058); format: functional;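 further: antagonist potency meaning inhibition of agonist-induced arrestin redistribution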
[8] = molecular target: T5, G-protein coupled receptor 35; assay: SAR Analysis for the identification of Selective Antagonists of ERK1/2 Activity in GPR35-Overexpressing U2OS Cells. [Related pubchem assays: 2079, 2058 ]; format: functional, cell-based
[9] = molecular target: T6, Sentrin-specific protease 6 (Homo sapiens, UniProt Q9GZR1); format: functional;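 further: Luminescence-based dose-response confirmatory assay of SENP6 inhibition, following up an ultra-high-throughput screen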
T6 sequence (Q9GZR1 whole entry): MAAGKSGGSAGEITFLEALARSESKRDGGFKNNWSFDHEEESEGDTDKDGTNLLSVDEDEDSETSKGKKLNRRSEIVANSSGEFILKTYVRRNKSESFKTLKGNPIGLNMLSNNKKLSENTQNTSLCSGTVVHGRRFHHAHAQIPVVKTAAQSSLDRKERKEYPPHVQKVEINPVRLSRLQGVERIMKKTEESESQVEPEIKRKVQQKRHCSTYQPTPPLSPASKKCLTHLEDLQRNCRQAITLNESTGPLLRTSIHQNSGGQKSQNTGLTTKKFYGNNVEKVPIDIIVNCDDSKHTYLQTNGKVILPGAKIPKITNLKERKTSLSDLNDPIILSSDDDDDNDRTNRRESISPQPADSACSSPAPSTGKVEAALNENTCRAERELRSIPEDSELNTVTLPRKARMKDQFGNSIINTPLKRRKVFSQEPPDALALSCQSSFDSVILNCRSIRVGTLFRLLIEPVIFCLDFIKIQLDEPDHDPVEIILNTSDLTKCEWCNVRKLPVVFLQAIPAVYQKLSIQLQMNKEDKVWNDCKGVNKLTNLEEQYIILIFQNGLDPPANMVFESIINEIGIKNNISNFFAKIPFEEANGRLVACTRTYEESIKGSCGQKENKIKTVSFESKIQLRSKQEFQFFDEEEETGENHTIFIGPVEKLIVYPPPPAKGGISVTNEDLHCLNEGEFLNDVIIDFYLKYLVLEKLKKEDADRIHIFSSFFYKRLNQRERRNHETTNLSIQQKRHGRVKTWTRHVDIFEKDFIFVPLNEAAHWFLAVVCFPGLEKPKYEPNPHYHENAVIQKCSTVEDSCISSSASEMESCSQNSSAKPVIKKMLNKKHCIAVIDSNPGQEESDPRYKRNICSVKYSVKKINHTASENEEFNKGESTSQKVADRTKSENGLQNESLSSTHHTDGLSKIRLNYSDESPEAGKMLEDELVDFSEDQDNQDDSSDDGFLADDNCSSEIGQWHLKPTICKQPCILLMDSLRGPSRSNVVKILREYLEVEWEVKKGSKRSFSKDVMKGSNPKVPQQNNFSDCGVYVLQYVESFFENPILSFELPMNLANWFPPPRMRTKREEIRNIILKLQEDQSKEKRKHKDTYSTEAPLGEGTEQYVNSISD

[10] = molecular target: T7, Sentrin-specific protease 7 (Homo sapiens, UniProt Q9BQF6); format: functional;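 further: Luminescence-based dose-response confirmation of ultra-high-throughput screening hits, measuring inhibition of SENP7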
T7 sequence (Q9BQF6 whole entry): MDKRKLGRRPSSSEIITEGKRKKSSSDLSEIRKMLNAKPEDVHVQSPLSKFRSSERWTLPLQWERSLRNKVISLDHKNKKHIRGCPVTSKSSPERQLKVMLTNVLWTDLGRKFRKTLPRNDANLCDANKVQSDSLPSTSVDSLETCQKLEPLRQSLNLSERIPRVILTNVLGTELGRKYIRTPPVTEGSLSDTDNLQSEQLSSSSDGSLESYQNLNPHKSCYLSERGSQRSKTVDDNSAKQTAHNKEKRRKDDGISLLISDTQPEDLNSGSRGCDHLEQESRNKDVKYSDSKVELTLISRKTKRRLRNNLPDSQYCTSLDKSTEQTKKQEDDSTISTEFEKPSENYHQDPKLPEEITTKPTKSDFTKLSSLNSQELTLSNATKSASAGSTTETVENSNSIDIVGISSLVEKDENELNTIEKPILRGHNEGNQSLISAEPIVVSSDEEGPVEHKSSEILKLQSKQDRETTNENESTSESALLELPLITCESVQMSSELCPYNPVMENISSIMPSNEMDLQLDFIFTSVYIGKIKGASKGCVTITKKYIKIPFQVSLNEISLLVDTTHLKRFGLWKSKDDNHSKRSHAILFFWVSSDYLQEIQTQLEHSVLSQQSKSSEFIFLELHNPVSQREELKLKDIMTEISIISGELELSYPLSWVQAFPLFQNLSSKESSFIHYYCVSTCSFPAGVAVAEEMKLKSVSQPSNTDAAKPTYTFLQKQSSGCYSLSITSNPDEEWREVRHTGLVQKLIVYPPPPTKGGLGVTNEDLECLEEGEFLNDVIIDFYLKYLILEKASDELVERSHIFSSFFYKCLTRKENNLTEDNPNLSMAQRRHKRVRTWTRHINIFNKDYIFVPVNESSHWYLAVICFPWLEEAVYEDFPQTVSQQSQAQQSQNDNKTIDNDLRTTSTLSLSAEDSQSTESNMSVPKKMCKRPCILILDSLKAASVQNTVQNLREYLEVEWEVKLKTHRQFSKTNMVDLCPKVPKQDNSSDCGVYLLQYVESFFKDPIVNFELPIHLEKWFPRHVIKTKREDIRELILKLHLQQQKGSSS

[11] = molecular target: T8, Caspase-3 (Homo sapiens, UniProt P42574); format: functional;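 further: Dose-response selectivity test against caspase-3 for candidate inhibitors of sentrin-specific proteases (SENPs)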
T8 sequence (P42574 whole entry): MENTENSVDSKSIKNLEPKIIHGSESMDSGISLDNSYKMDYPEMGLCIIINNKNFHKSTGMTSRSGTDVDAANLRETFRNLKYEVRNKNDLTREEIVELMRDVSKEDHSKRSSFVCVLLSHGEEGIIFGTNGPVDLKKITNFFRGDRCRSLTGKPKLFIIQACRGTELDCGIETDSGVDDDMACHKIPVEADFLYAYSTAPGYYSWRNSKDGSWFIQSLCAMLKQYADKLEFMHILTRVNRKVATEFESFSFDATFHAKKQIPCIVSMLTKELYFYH

[12] = molecular target: T9, Sentrin-specific protease 8 (Homo sapiens, UniProt Q96LD8); format: functional;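 further: luminescence read-out of SENP8 inhibition, dose-response confirmation following an ultra-high-throughput screen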
T9 sequence (Q96LD8 whole entry): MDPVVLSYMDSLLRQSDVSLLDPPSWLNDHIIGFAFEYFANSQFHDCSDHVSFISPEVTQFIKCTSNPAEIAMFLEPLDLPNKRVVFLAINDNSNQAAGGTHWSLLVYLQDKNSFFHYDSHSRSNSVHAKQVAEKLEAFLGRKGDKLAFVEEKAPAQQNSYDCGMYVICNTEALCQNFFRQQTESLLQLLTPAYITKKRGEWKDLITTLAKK

[13] = decrease of insulin promoter-GFP reporter – imaging, high-content screening, mouse beta cells (AID 1628); format: functional; settings: MIN6
[14] = MIN6 cell viability loss – mouse insulinoma, cytotoxicity control, dose response (AID 2122); format: functional;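 further: confirmatory high-throughput counterscreen run to flag cytotoxic compounds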
[15] = molecular target: Glucose-6-phosphate 1-dehydrogenase (Homo sapiens, UniProt P11413); assay: inhibition of Homo sapiens G6PD, dose series – biochemical, fluorescence, selectivity assay for P. falciparum G6PD inhibitor project, dose response (AID 504792); format: functional
[16] = Luminescence Cell-Based Dose Retest to Confirm Inhibitors of Cancer Stem Cells. [Related pubchem assays (depositor defined):AID2717, AID2721]; format: functional; settings: Homo sapiens
[17] = molecular target: Voltage-dependent T-type calcium channel subunit alpha-1H (Homo sapiens, UniProt O95180); assay: inhibition of CACNA1H calcium flux – cell-based, SynthLib3 library, HEK293 Cav3.2, fluorescence (AID 493041); format: functional
Sequence of Voltage-dependent T-type calcium channel subunit alpha-1H (O95180 whole entry): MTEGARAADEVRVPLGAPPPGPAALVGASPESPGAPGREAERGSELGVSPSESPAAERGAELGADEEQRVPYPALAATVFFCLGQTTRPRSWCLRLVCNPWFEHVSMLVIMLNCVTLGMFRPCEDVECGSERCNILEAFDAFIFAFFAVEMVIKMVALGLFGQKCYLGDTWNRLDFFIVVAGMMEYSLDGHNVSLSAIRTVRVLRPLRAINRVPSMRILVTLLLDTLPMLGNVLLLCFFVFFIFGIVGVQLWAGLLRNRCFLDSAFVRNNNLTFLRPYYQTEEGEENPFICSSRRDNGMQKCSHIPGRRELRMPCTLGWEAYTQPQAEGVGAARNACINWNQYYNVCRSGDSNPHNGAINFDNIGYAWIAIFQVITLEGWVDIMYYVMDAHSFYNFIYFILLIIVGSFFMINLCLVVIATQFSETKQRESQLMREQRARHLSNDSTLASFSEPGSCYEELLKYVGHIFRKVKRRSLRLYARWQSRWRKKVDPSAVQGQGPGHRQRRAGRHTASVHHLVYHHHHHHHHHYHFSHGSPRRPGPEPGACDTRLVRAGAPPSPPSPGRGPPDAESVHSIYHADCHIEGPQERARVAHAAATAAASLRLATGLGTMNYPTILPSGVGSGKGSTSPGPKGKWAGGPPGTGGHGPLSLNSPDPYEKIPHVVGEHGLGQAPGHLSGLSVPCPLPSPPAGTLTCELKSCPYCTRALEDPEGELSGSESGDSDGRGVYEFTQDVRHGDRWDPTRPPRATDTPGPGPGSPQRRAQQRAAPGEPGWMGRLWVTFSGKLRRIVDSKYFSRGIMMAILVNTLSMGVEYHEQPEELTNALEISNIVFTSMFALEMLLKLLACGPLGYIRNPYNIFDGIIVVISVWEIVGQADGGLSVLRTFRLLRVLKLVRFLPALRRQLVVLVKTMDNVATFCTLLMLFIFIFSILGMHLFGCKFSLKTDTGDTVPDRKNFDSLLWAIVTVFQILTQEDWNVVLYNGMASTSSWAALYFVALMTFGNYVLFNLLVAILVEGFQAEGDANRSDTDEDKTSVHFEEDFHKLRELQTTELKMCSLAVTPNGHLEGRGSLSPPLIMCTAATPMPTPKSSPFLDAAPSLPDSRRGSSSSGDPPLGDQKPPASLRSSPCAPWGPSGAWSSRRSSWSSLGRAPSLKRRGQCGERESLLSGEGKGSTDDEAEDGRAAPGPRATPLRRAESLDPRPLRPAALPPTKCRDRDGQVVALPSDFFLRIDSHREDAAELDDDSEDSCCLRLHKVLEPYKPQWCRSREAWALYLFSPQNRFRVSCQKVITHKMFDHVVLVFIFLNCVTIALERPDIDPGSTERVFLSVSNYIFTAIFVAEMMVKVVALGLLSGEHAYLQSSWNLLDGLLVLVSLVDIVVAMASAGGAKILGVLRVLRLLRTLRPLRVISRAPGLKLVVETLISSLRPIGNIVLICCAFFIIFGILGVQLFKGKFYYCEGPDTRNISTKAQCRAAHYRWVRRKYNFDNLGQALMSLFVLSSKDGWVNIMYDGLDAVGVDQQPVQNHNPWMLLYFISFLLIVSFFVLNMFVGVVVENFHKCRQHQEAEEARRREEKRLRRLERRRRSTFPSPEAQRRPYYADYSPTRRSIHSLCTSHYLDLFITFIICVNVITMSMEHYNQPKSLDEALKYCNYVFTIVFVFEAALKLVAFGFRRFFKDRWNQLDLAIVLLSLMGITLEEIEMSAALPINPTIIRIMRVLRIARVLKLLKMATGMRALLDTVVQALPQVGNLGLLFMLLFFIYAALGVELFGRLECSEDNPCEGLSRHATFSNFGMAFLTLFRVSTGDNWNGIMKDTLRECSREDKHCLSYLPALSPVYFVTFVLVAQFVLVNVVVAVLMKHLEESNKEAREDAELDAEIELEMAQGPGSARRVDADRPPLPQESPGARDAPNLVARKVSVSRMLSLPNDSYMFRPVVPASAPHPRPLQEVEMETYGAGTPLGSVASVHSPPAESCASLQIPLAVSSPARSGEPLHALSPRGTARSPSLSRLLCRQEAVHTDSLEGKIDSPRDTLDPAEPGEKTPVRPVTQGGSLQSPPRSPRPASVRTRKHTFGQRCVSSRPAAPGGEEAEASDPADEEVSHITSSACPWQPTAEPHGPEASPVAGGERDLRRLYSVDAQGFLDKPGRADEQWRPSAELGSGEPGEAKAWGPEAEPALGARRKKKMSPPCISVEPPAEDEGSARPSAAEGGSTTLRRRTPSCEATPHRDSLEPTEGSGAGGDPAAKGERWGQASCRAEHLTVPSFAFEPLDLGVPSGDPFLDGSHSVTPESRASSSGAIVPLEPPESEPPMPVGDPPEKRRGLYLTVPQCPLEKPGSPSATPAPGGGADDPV

T5 sequence (Q9HC97 whole entry): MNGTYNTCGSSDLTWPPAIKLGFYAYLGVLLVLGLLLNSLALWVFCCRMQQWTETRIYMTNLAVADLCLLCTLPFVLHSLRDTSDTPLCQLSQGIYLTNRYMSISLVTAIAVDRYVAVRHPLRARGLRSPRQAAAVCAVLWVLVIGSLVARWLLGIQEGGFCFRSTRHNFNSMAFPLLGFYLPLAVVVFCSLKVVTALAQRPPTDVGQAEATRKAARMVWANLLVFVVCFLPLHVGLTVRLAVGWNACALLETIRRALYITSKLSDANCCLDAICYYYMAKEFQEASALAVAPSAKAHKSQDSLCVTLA
Sequence of G-protein coupled receptor 55 (Q9Y2T6 whole entry): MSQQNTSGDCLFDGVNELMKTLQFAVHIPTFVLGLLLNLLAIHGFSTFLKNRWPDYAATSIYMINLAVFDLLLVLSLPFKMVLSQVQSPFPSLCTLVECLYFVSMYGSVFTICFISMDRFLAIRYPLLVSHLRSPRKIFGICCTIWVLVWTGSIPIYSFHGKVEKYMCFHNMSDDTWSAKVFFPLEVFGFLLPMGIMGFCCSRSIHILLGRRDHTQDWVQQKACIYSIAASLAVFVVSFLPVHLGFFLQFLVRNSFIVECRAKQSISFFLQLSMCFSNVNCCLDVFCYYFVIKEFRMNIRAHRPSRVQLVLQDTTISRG
Sequence of Glucose-6-phosphate 1-dehydrogenase (P11413 whole entry): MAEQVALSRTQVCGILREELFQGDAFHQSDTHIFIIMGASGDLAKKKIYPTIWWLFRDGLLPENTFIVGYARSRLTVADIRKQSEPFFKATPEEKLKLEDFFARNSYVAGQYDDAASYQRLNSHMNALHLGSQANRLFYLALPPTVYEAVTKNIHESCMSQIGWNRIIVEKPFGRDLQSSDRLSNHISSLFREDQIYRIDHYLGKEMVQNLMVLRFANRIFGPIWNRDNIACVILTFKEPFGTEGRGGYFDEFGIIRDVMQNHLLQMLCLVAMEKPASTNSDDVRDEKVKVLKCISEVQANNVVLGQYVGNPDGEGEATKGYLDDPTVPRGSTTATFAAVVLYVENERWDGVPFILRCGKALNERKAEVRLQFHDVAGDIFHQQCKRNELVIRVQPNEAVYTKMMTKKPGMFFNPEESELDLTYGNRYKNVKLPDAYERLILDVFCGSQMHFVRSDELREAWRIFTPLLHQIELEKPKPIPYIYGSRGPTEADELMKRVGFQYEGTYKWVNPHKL

## COC(=O)c1c(-c2ccc(SC)cc2)sc2ccc(OC)cc12
[1]
  IC50: > 20 µM (inactive)
[2]
  IC50: 18.9 µM (active)
[3]
  IC50: > 20 µM (inactive)

## O=C(CCCN1C(=O)S/C(=C\C=C\c2ccccc2)C1=O)Nc1ccc(C(=O)O)cc1
[4]
  IC50: 12.9 µM (inactive)
[5]
  EC50: 51.2 µM (active)
[6]
  AC50: 39.2 µM (active)
[7]
  IC50: 1.26 µM (active)
[8]
  IC50: 9.54 µM (active)

## O=C(CCCN1C(=O)S/C(=C/c2ccccc2)C1=S)Nc1ccc(C(=O)O)cc1
[9]
  IC50: 23.7 µM (active)
[4]
  IC50: > 32 µM (inactive)
[10]
  IC50: 21.3 µM (active)
[11]
  IC50: 23.5 µM (active)
[12]
  IC50: 29.8 µM (active)
[7]
  IC50: 1.51 µM (active)
[8]
  IC50: 1.45 µM (active)

## CCOc1ccc(C(O)Cn2c(=N)n(CCN3CCCCC3)c3ccccc32)cc1 (centres undefined)
[13]
  IC50: 2.55 µM (active)
[14]
  IC50: 5.18 µM (active)

## NCCNc1ccc(C(=O)N2c3ccccc3Sc3ccccc32)cc1[N+](=O)[O-]
[15]
  IC50: > 80 µM (inactive)
[1]
  IC50: 10.9 µM (active)
[16]
  AC50: 6.81 µM (active)
[2]
  IC50: 9.58 µM (active)
[3]
  IC50: > 20 µM (inactive)

## CCCN1C[C@@H]2C(CNC(=O)c3cc(Cl)cc(Cl)c3)[C@@H]2C1 (some centres undefined)
[17]
  EC50: 10 µM (active)

## CC(Cc1nnc(NC(=O)COc2ccc(F)cc2Cl)o1)CC(C)(C)C (centres undefined)
[17]
  EC50: 1.2 µM (active)
